# Reference: patent publication US20240301409A1, “Chemically Modified Small Activating RNA” (RACTIGEN THERAPEUTICS, priority 2021, published 2024)
# System: J82 cells
# Assay: Cellular proliferation assay (CCK8) in J82 cells, combined with Mitomycin C or valrubicin
# Type: cell-based, human
# Details: for Combination Index (CI) / relative proliferation proportion of cells: J82 cells
# Procedure: J82 cells were transfected with RAG1-40-31 at concentrations of 0.1, 0.5, 1, 5, 10, 25 and 50 nM for 24 hours, and then Mitomycin C at concentrations of 1, 10, 100, 1000 and 10000 nM was added. The combined treatment was carried out with concentrations in pairs. After treatment, the proliferation of cells was detected using CCK8 kit. FIGS. 14A-14B show the relative proliferation proportion of J82 cells after the combined treatment with chemically modified saRNA RAG1-40-31 and valrubicin. […] Control and DMSO are the blank transfection control and the solvent for dilution control, respectively.
# J82 cells were transfected with RAG1-40-31 at concentrations of 0.1, 0.5, 1, 5, 10, 25 and 50 nM for 24 hours, and then valrubicin at concentrations of 1, 10, 100, 1000 and 10000 nM was added. The combined treatment was carried out with concentrations in pairs. After treatment, the cellular proliferation was detected by CCK8 kit. FIGS. 15A-15B show the relative proliferation proportion of T24 cells after the combined treatment with chemically modified saRNA RAG1-40-31 and Mitomycin C. […] Control and DMSO are the blank transfection control and the solvent for dilution control, respectively.
# Human bladder cancer cells Ku-7-LG (ATCC), J82 (ATCC) and T24 (ATCC) were cultured in McCoy medium (Gibco) comprising 10% calf serum (Sigma-Aldrich) and 1% penicillin/Streptomycin (Gibco). Cells were cultured at 37° C. under 5% CO2. Ku-7-LG, J82 and T24 cells were plated into 12-well plates at 10×10^4 cells per well, transfected with the small RNA at a concentration of 10 nM (unless otherwise specified) for three days, using RNAiMax (Invitrogen, Carlsbad, CA) according to the manufacturer's instructions. Two replicate wells were set for each treatment.
# Cells were plated in a 96-well plate at 2˜4×10^3 cells/well, cultured overnight, and transfected with the oligonucleotide duplexes. Three days after transfection, CCK8 (Dojindo) was used to detect cellular proliferation following manufacturer's instructions. The experimental steps are briefly described as follows: 10 μL of CCK8 solution was added to each well, incubated at 37° C. for 1 hour, and then the absorbance at 450 nm was measured using a microplate reader.
# In this example, chemically modified saRNA RAG1-40-31 was used in combination with clinical chemical agents to evaluate the suppressing effect of the combined agents on cancer cells.
# [1] = RAG1-40-31 0.1 nM + MMC 1000 nM
substance,measurement,setting,value
"RAG1-40-31: saRNA duplex: sense fCfCAACUCAUUCUCCAAG*U*C (SEQ ID NO 16); antisense U*A*fCfUfUGGAGAAfUGAGfUfUGG*fC*A (SEQ ID NO 12) (sense CCAACUCAUUCUCCAAGUC; antisense UACUUGGAGAAUGAGUUGGCA; 2'-F and phosphorothioate modifications; modified_base (1)..(2) (1,2)=2′-fluoro; modified_base (17)..(19) (17,18,19)=phosphorothioate (PS) backbone modification; modified_base (2)..(21) (2,3,19,20,21)=phosphorothioate (PS) backbone modification; modified_base (3)..(20) (3,4,5,12,16,17,20)=2′-fluoro)",Combination Index (CI),RAG1-40-31 0.1 nM + MMC 1 nM,0.08
same,Combination Index (CI),RAG1-40-31 0.1 nM + MMC 10 nM,0.42
same,Combination Index (CI),RAG1-40-31 0.1 nM + MMC 100 nM,0.47
same,Combination Index (CI),[1],0.73
same,Combination Index (CI),RAG1-40-31 0.1 nM + MMC 10000 nM,0.50
same,Combination Index (CI),RAG1-40-31 0.1 nM + valrubicin 1 nM,0.10
same,Combination Index (CI),RAG1-40-31 0.1 nM + valrubicin 10 nM,0.42
same,Combination Index (CI),RAG1-40-31 0.1 nM + valrubicin 100 nM,0.85
same,Combination Index (CI),RAG1-40-31 0.1 nM + valrubicin 1000 nM,0.18
same,Combination Index (CI),RAG1-40-31 0.1 nM + valrubicin 10000 nM,0.19
same,Combination Index (CI),RAG1-40-31 0.5 nM + MMC 1 nM,0.17
same,Combination Index (CI),RAG1-40-31 0.5 nM + MMC 10 nM,0.47
same,Combination Index (CI),RAG1-40-31 0.5 nM + MMC 100 nM,0.54
same,Combination Index (CI),RAG1-40-31 0.5 nM + MMC 1000 nM,0.75
same,Combination Index (CI),RAG1-40-31 0.5 nM + MMC 10000 nM,0.25
same,Combination Index (CI),RAG1-40-31 0.5 nM + valrubicin 1 nM,0.18
same,Combination Index (CI),RAG1-40-31 0.5 nM + valrubicin 10 nM,0.08
same,Combination Index (CI),RAG1-40-31 0.5 nM + valrubicin 100 nM,1.31
same,Combination Index (CI),RAG1-40-31 0.5 nM + valrubicin 1000 nM,0.14
same,Combination Index (CI),RAG1-40-31 0.5 nM + valrubicin 10000 nM,0.11
same,Combination Index (CI),RAG1-40-31 1 nM + MMC 1 nM,0.13
same,Combination Index (CI),RAG1-40-31 1 nM + MMC 10 nM,0.58
same,Combination Index (CI),RAG1-40-31 1 nM + MMC 100 nM,0.52
same,Combination Index (CI),RAG1-40-31 1 nM + MMC 1000 nM,0.76
same,Combination Index (CI),RAG1-40-31 1 nM + MMC 10000 nM,0.46
same,Combination Index (CI),RAG1-40-31 1 nM + valrubicin 1 nM,0.26
same,Combination Index (CI),RAG1-40-31 1 nM + valrubicin 10 nM,0.12
same,Combination Index (CI),RAG1-40-31 1 nM + valrubicin 100 nM,0.30
same,Combination Index (CI),RAG1-40-31 1 nM + valrubicin 1000 nM,0.12
same,Combination Index (CI),RAG1-40-31 1 nM + valrubicin 10000 nM,0.11
same,Combination Index (CI),RAG1-40-31 5 nM + MMC 1 nM,0.29
same,Combination Index (CI),RAG1-40-31 5 nM + MMC 10 nM,0.32
same,Combination Index (CI),RAG1-40-31 5 nM + MMC 100 nM,0.40
same,Combination Index (CI),RAG1-40-31 5 nM + MMC 1000 nM,0.43
same,Combination Index (CI),RAG1-40-31 5 nM + MMC 10000 nM,0.41
same,Combination Index (CI),RAG1-40-31 5 nM + valrubicin 1 nM,0.12
same,Combination Index (CI),RAG1-40-31 5 nM + valrubicin 10 nM,0.32
same,Combination Index (CI),RAG1-40-31 5 nM + valrubicin 100 nM,0.61
same,Combination Index (CI),RAG1-40-31 5 nM + valrubicin 1000 nM,0.13
same,Combination Index (CI),RAG1-40-31 5 nM + valrubicin 10000 nM,0.06
same,Combination Index (CI),RAG1-40-31 10 nM + MMC 1 nM,0.40
same,Combination Index (CI),RAG1-40-31 10 nM + MMC 10 nM,0.47
same,Combination Index (CI),RAG1-40-31 10 nM + MMC 100 nM,0.37
same,Combination Index (CI),RAG1-40-31 10 nM + MMC 1000 nM,0.41
same,Combination Index (CI),RAG1-40-31 10 nM + MMC 10000 nM,0.29
same,Combination Index (CI),RAG1-40-31 10 nM + valrubicin 1 nM,0.14
same,Combination Index (CI),RAG1-40-31 10 nM + valrubicin 10 nM,0.22
same,Combination Index (CI),RAG1-40-31 10 nM + valrubicin 100 nM,0.37
same,Combination Index (CI),RAG1-40-31 10 nM + valrubicin 1000 nM,0.11
same,Combination Index (CI),RAG1-40-31 10 nM + valrubicin 10000 nM,0.04
same,Combination Index (CI),RAG1-40-31 25 nM + MMC 1 nM,0.32
same,Combination Index (CI),RAG1-40-31 25 nM + MMC 10 nM,0.50
same,Combination Index (CI),RAG1-40-31 25 nM + MMC 100 nM,0.37
same,Combination Index (CI),RAG1-40-31 25 nM + MMC 1000 nM,0.28
same,Combination Index (CI),RAG1-40-31 25 nM + MMC 10000 nM,0.09
same,Combination Index (CI),RAG1-40-31 25 nM + valrubicin 1 nM,0.14
same,Combination Index (CI),RAG1-40-31 25 nM + valrubicin 10 nM,0.10
same,Combination Index (CI),RAG1-40-31 25 nM + valrubicin 100 nM,0.16
same,Combination Index (CI),RAG1-40-31 25 nM + valrubicin 1000 nM,0.05
same,Combination Index (CI),RAG1-40-31 25 nM + valrubicin 10000 nM,0.02
same,relative proliferation proportion of cells,"RAG1-40-31 25 nM and 50 nM + Mitomycin C 1, 10, 100, 1000 and 10000 nM",lower than 26%
same,relative proliferation proportion of cells,"RAG1-40-31 25 nM and 50 nM + Valrubicin 1, 10, 100, 1000 and 10000 nM",lower than 30%
same,Combination Index (CI),RAG1-40-31 50 nM + MMC 1 nM,0.96
same,Combination Index (CI),RAG1-40-31 50 nM + MMC 10 nM,0.98
same,Combination Index (CI),RAG1-40-31 50 nM + MMC 100 nM,0.44
same,Combination Index (CI),RAG1-40-31 50 nM + MMC 1000 nM,0.19
same,Combination Index (CI),RAG1-40-31 50 nM + MMC 10000 nM,0.15
same,Combination Index (CI),RAG1-40-31 50 nM + valrubicin 1 nM,0.11
same,Combination Index (CI),RAG1-40-31 50 nM + valrubicin 10 nM,0.14
same,Combination Index (CI),RAG1-40-31 50 nM + valrubicin 100 nM,0.22
same,Combination Index (CI),RAG1-40-31 50 nM + valrubicin 1000 nM,0.09
same,Combination Index (CI),RAG1-40-31 50 nM + valrubicin 10000 nM,0.02
same,relative proliferation proportion of cells,"RAG1-40-31 0.1-50 nM + Mitomycin C 100, 1000 and 10000 nM",lower than 35%
same,relative proliferation proportion of cells,RAG1-40-31 0.1-50 nM + Valrubicin 1000 nM and 10000 nM,lower than 30%
same,relative proliferation proportion of cells,"RAG1-40-31 5-50 nM + Mitomycin C 1, 10, 100, 1000 and 10000 nM",lower than 43%
same,"effect of combined use with Mitomycin C or valrubicin, in words",J82 tumor cells,synergistic effect
same,Relative proliferation proportion of J82 cells,RAG1-40-31 0.1 nM + MMC 1 nM,74.3%
same,Relative proliferation proportion of J82 cells,RAG1-40-31 0.1 nM + MMC 10 nM,71.5%
same,Relative proliferation proportion of J82 cells,RAG1-40-31 0.1 nM + MMC 100 nM,32.9%
same,Relative proliferation proportion of J82 cells,[1],10.8%
